Results as given in patent publication US9931372B2, “Synthetic apelin fatty acid conjugates with improved half-life” (Novartis AG, priority 2015, dated 2018).
Where two headings read alike, the source gives them in different places. Bridge positions count the residues as written; N and C are the ends. Square brackets hold non-standard residues; d marks the D form. Peptide text beside a SMILES is read from it. * marks the point of attachment. PEG24 = NCCOCCOCCOCCOCCOCCOCCOCCOCCOCCOCCOCCOCCOCCOCCOCCOCCOCCOCCOCCOCCOCCOCCOCCOCCC(=O)O; Malonyl(C11H23,(CH2)10COOH) = CCCCCCCCCCCC(CCCCCCCCCCC(=O)O)(C(=O)O)C(=O)*; PEG12 = NCCOCCOCCOCCOCCOCCOCCOCCOCCOCCOCCOCCOCCC(=O)O; pGlu = O=C1CC[C@@H](C(=O)O)N1; PEG4 = NCCOCCOCCOCCOCCC(=O)O; Nle = CCCC[C@H](N)C(=O)O

Experiments:
[1] = In vivo pharmacokinetic assessment via SC dosing; conditions: mouse, C57/B6 mice, subcutaneous dosing, plasma, read-out: t½ (converted)
Protocol: Protocols and Data for the In Vivo Pharmacokinetic Assessment Via SC Dosing. Formulation, Dosing and Sample Acquisition: […]
Example 1 and example 4 were dissolved to 0.1 mg/ml concentration in 30% (w/v) PEG300 and 5% (w/v) dextrose in PBS. C57/B6 mice (˜20 weeks of age) were dosed with dissolved compound by subcutaneous (SC) injection into the flank (n=4 per compound). Injection volume was 10 ml/kg. Blood samples were withdrawn from the saphenous vein at 3 and 6 hours post-dose, as well as at 1, 2, 4, 7 and 10 days post dose. Blood samples were immediately centrifuged at 4000×g for 10 min. Plasma supernatant (10 μL) was transferred to a 96-well plate and frozen at −80 C until analysis.
C57/B6J mice (˜22 weeks of age) were dosed with dissolved compound by SC injection (n=4). Blood samples were withdrawn from the tail vein at 15, 30, 60 and 120 minutes post injection. These were immediately centrifuged and then plasma supernatant was transferred to a 96-well plate and frozen at −80 C until analysis.
Preparation of Samples for Bioanalysis:
A pre-weighed sample of each compound (1-3 mg) was obtained and dissolved to 1 mg/ml in DMSO. These were diluted serially in mouse plasma (BioReclamation) to final concentrations of 10,000, 5,000, 1,000, 500, 100, 50, 10, 5, and 1 ng/ml to make standard curve for analysis.
Plasma samples from PK studies were thawed and diluted to 25 μL total volume by addition of mouse plasma.
25 μL aliquots of each sample and standard curve sample were arranged on a 96-well plate.
150 μL acetonitrile containing 100 ng/ml glyburide as internal standard was added to each sample and the samples vortexed for 30 seconds. Samples were then centrifuged at 4000×g for 10 minutes. 125 μL supernatant was then transferred to a fresh 96-well plate. 50 μL of water was added and mixed by vortexing for 30 seconds.
LC/MS Bioanalysis (Agilent 1290):
Samples (10 μL) were transferred to an HPLC using a CTC PAL autosampler. The LC column was ACE C18 30×2.1 mm, 3.0 μm bead. […]

hAPJ = target: T1, hAPJ (Homo sapiens, UniProt P35414); test: hAPJ Calcium flux assay; type: cell-based
T1 sequence (P35414 1-380): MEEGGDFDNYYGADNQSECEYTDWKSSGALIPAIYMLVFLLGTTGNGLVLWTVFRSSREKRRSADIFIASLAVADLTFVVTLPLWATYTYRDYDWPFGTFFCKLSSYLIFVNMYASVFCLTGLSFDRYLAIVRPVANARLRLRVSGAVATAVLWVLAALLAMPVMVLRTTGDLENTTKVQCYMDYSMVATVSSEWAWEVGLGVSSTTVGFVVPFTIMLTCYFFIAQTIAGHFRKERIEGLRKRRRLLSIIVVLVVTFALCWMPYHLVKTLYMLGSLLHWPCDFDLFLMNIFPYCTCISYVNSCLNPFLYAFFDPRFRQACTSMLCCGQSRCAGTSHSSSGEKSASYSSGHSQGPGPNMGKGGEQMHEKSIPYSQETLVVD
Protocol: Chem-5 APJ stable cells (Millipore # HTS068C) were plated in 384-well format with 10,000 cells/well in 25 ul growth media, then grown 24 hours in a 37° C. tissue culture incubator. One hour before the assay, 25 ul/well FLIPR Calcium 4 dye (Molecular Devices R8142) with 2.5 mM probenecid was added, and cells were incubated one hour in a 37° C. tissue culture incubator. Bioconjugates were solubilized in HBSS, HEPES & 0.1% BSA buffer, and serially-diluted 10-fold, from 50 uM to 5 pM, in triplicate. FLIPR Tetra was used to add bioconjugates to the cells with dye (1:5, for final bioconjugate concentrations ranging from 10 uM to 1 pM). FLIPR dye inside the cells emitted fluorescence after binding to calcium, while fluorescence from outside the cells was masked. Fluorescence was measured using 470-495 excitation and 515-575 emission wavelengths on the FLIPR Tetra. Readings were done for 3 minutes total, beginning 10 seconds before the bioconjugate addition. Maximum-minimum values were calculated and plotted for each bioconjugate concentration, and GraphPad prism software was used to calculate EC50 values at the curve inflection points, for calcium flux stimulation by bioconjugates.

[2] = Surrogate activity-based plasma stability assay; type: in vitro ADME; conditions: rat
Text: Surrogate Activity-Based Plasma Stability Assay:
2) Calculate slope of value above and […]

[3] = Chem-5 APJ stable cells, FLIPR calcium flux, read-out: hAPJ Ca^2+ Flux EC50

Question: What does the source list for `CCCCCCCCCCCC(CCCCCCCCCCC(=O)O)(C(=O)O)C(=O)NCCOCCOCCOCCOCCC(=O)N[C@@H](CCC(N)=O)C(=O)N[C@@H](CCCNC(=N)N)C(=O)N1CCC[C@H]1C(=O)N[C@@H](CCCNC(=N)N)C(=O)N[C@@H](CC(C)C)C(=O)N[C@H]1CSSC[C@@H](C(=O)N[C@@H](Cc2ccccc2)C(=O)O)NC(=O)[C@H](CCCC)NC(=O)[C@@H]2CCCN2C(=O)CNC(=O)[C@H](CCCCN)NC(=O)[C@H](Cc2cnc[nH]2)NC1=O` (some centres unmarked) [Example 4] ({Malonyl(C11H23,(CH2)10COOH)-PEG4}-QRPRLCHKGP[Nle]CF-OH; disulfide 6-12)?
Answer: half-life ([1]; 1 mg/kg): 23 h; EC50 (hAPJ; [3]): 0.158 µM; half-life [2]: > 16.7 h

Question: What does the source list for `CCCCCCCCCCCC(CCCCCCCCCCC(=O)O)(C(=O)O)C(=O)NCCOCCOCCOCCOCCOCCOCCOCCOCCOCCOCCOCCOCCOCCOCCOCCOCCOCCOCCOCCOCCOCCOCCOCCOCCC(=O)N[C@@H](CCC(N)=O)C(=O)N[C@@H](CCCNC(=N)N)C(=O)N1CCC[C@H]1C(=O)N[C@@H](CCCNC(=N)N)C(=O)N[C@@H](CC(C)C)C(=O)N[C@H]1CSSC[C@@H](C(=O)N[C@@H](Cc2ccccc2)C(=O)O)NC(=O)[C@H](CCCC)NC(=O)[C@@H]2CCCN2C(=O)CNC(=O)[C@H](CCCCN)NC(=O)[C@H](Cc2cnc[nH]2)NC1=O` (stereo partly drawn) [Example 1, Fatty Acid-Linker#1Q-R-P-R-L-C*-H-K-G-P-(Nle)-C*-F (C6-C12 Disulfide Bridge)] ({Malonyl(C11H23,(CH2)10COOH)-PEG24}-QRPRLCHKGP[Nle]CF-OH; disulfide 6-12)?
Answer: half-life ([1]; 1 mg/kg): 43 h; EC50 (hAPJ; [3]): 0.111 µM; half-life [2]: > 16.7 h

Question: Which EC50 (hAPJ; [3]) does the source give for `CCCCCCCCCCCC(CCCCCCCCCCC(=O)O)(C(=O)O)C(=O)NCCOCCOCCOCCOCCOCCOCCOCCOCCOCCOCCOCCOCCC(=O)N[C@@H](CCC(N)=O)C(=O)N[C@@H](CCCNC(=N)N)C(=O)N1CCC[C@H]1C(=O)N[C@@H](CCCNC(=N)N)C(=O)N[C@@H](CC(C)C)C(=O)N[C@H]1CSSC[C@@H](C(=O)N[C@@H](Cc2ccccc2)C(=O)O)NC(=O)[C@H](CCCC)NC(=O)[C@@H]2CCCN2C(=O)CNC(=O)[C@H](CCCCN)NC(=O)[C@H](Cc2cnc[nH]2)NC1=O` (some centres unmarked) [Example 2] ({Malonyl(C11H23,(CH2)10COOH)-PEG12}-QRPRLCHKGP[Nle]CF-OH; disulfide 6-12) here?
Answer: 0.0848 µM

Question: And the half-life [2]?
Answer: > 16.7 h

Question: For `CCCC[C@@H]1NC(=O)[C@@H]2CCCN2C(=O)CNC(=O)[C@H](CCCCN)NC(=O)[C@H](Cc2cnc[nH]2)NC(=O)[C@@H](NC(=O)[C@H](CC(C)C)NC(=O)[C@H](CCCNC(=N)N)NC(=O)[C@@H]2CCCN2C(=O)[C@H](CCCNC(=N)N)NC(=O)[C@@H]2CCC(=O)N2)CSSC[C@@H](C(=O)N[C@@H](Cc2ccccc2)C(=O)O)NC1=O` [pE-R-P-R-L-C*-H-K-G-P-Nle-C*-F-OH, reference compound] ([pGlu]RPRLCHKGP[Nle]CF-OH; disulfide 6-12), which half-life [1] is on record?
Answer: 0.52 h

Question: And the EC50 (hAPJ)?
Answer: 0.001 µM

Question: What about the half-life [2] of the same compound?
Answer: 2.2 h
